Measurements: the NIST ThermoML archive (doi:10.1016/j.jct.2006.07.021)
“And” between values parts separate entries of the source, which are not always exact repeats. Equal entries are not always repeated. Numbers after ± are expanded uncertainties.

Test: xn = mol fraction of the nth substance listed
Settings: 101 kPa, Liquid, Pycnometric method

NC=O [formamide] + CCCO
mass density
Settings | 293.15 K | 298.15 K | 303.15 K | 308.15 K | 313.15 K | 318.15 K
x1 = 0.0557 | 814.02 ± 0.22 kg/m3 | 810.06 ± 0.22 kg/m3 | 806.09 ± 0.23 kg/m3 | 802.16 ± 0.24 kg/m3 | 798.22 ± 0.25 kg/m3 | 794.25 ± 0.26 kg/m3
x1 = 0.1172 | 826.05 ± 0.22 kg/m3 | 822.13 ± 0.23 kg/m3 | 818.2 ± 0.24 kg/m3 | 814.24 ± 0.25 kg/m3 | 810.33 ± 0.26 kg/m3 | 806.4 ± 0.27 kg/m3
x1 = 0.1854 | 840.26 ± 0.23 kg/m3 | 836.35 ± 0.23 kg/m3 | 832.44 ± 0.24 kg/m3 | 828.51 ± 0.25 kg/m3 | 824.6 ± 0.26 kg/m3 | 820.65 ± 0.27 kg/m3
x1 = 0.2615 | 857.42 ± 0.23 kg/m3 | 853.48 ± 0.24 kg/m3 | 849.54 ± 0.25 kg/m3 | 845.65 ± 0.26 kg/m3 | 841.72 ± 0.27 kg/m3 | 837.81 ± 0.28 kg/m3
x1 = 0.3469 | 878.23 ± 0.24 kg/m3 | 874.3 ± 0.25 kg/m3 | 870.42 ± 0.26 kg/m3 | 866.5 ± 0.27 kg/m3 | 862.58 ± 0.28 kg/m3 | 858.68 ± 0.29 kg/m3
x1 = 0.3912 | 889.89 ± 0.24 kg/m3 | 885.98 ± 0.25 kg/m3 | 882.06 ± 0.26 kg/m3 | 878.16 ± 0.27 kg/m3 | 874.26 ± 0.28 kg/m3 | 870.36 ± 0.29 kg/m3
x1 = 0.4434 | 904.36 ± 0.25 kg/m3 | 900.47 ± 0.26 kg/m3 | 896.54 ± 0.27 kg/m3 | 892.62 ± 0.28 kg/m3 | 888.72 ± 0.29 kg/m3 | 884.8 ± 0.3 kg/m3
x1 = 0.4986 | 920.67 ± 0.25 kg/m3 | 916.75 ± 0.26 kg/m3 | 912.83 ± 0.27 kg/m3 | 908.96 ± 0.28 kg/m3 | 905.05 ± 0.29 kg/m3 | 901.16 ± 0.3 kg/m3
x1 = 0.5534 | 937.91 ± 0.26 kg/m3 | 934.03 ± 0.27 kg/m3 | 930.12 ± 0.28 kg/m3 | 926.2 ± 0.29 kg/m3 | 922.32 ± 0.3 kg/m3 | 918.42 ± 0.31 kg/m3
x1 = 0.6216 | 961.03 ± 0.27 kg/m3 | 957.12 ± 0.28 kg/m3 | 953.23 ± 0.29 kg/m3 | 949.33 ± 0.3 kg/m3 | 945.41 ± 0.31 kg/m3 | 941.54 ± 0.32 kg/m3
x1 = 0.68 | 982.32 ± 0.28 kg/m3 | 978.44 ± 0.29 kg/m3 | 974.57 ± 0.3 kg/m3 | 970.66 ± 0.31 kg/m3 | 966.78 ± 0.32 kg/m3 | 962.88 ± 0.32 kg/m3
x1 = 0.7535 | 1011.59 ± 0.29 kg/m3 | 1007.72 ± 0.3 kg/m3 | 1003.81 ± 0.31 kg/m3 | 999.91 ± 0.32 kg/m3 | 996.03 ± 0.33 kg/m3 | 992.15 ± 0.34 kg/m3
x1 = 0.827 | 1043.7 ± 0.3 kg/m3 | 1039.83 ± 0.31 kg/m3 | 1035.95 ± 0.32 kg/m3 | 1032.06 ± 0.33 kg/m3 | 1028.21 ± 0.34 kg/m3 | 1024.36 ± 0.35 kg/m3
x1 = 0.8832 | 1070.44 ± 0.31 kg/m3 | 1066.54 ± 0.32 kg/m3 | 1062.68 ± 0.33 kg/m3 | 1058.82 ± 0.34 kg/m3 | 1054.92 ± 0.35 kg/m3 | 1051.03 ± 0.36 kg/m3
x1 = 0.9328 | 1095.56 ± 0.32 kg/m3 | 1091.65 ± 0.33 kg/m3 | 1087.74 ± 0.34 kg/m3 | 1083.81 ± 0.35 kg/m3 | 1079.91 ± 0.36 kg/m3 | 1075.97 ± 0.37 kg/m3
x1 = 1 | – | 1133 ± 0.34 kg/m3 and 1129 ± 0.33 kg/m3 | 1125 ± 0.34 kg/m3 | 1121 ± 0.35 kg/m3 | 1117 ± 0.36 kg/m3 | 1113 ± 0.37 kg/m3
